Assay results taken from US20200231614A1, “PSMA TARGETED RADIOHALOGENATED UREAS FOR CANCER RADIOTHERAPY” (THE JOHNS HOPKINS UNIVERSITY, priority 2015, published 2020).
Where two headings read alike, the source gives them in different places.

Legend:
PSMA = PSMA (Homo sapiens, UniProt Q04609); experiment: PSMA binding affinity (Ki); conditions: measured Ki, Table 11
From the text: Lysine glutamate ureas compounds for radiotherapy are disclosed in FIG. 2.

[1] = system: PSMA + PC-3 PiP and PSMA − PC-3 flu tumor xenografts; conditions: for Biodistribution: PC-3 PiP: PSMA+ tumor xenograft; for Biodistribution: PC-3 flu: PSMA− tumor xenograft
PSMA positive cells = experiment: In vitro radiotoxicity (cell kill); conditions: vs. free [^211At]astatide (FIG. 5B)
LNCaP cells = experiment: Uptake by LNCaP cells in presence and absence of PSMA inhibitor; conditions: 2 h and 4 h, presence and absence of PSMA inhibitor 2-PSMA (FIG. 5A)
[2] = system: PSMA+(PIP) tumors and PSMA−(Flu) tumors; format: in vivo; conditions: 3 to 19 days after single-bolus injection (20 μCi), PSMA+(PIP) vs PSMA−(Flu) tumors
[3] = 18 H post-injection, comparative Table 13

Chain of PSMA (Q04609 whole entry): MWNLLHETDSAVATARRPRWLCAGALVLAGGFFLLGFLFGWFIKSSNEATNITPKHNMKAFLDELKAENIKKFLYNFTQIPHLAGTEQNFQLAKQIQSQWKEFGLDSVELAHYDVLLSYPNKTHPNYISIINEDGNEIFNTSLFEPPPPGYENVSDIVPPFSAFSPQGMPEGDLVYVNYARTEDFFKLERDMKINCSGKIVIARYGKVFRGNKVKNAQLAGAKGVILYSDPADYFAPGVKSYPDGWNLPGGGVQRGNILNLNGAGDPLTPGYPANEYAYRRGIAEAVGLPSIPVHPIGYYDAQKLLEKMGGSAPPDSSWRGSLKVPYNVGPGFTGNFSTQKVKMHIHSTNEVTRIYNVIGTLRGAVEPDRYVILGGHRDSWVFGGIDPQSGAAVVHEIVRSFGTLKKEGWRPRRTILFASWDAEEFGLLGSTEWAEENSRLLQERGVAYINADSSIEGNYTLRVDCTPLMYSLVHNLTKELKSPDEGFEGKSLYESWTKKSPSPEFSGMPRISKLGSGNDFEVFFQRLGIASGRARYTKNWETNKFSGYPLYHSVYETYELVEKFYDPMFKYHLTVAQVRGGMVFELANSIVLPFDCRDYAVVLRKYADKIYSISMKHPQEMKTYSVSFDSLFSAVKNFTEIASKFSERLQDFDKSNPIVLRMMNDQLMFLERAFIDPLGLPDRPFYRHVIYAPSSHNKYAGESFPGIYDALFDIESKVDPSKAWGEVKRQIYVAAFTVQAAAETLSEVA

## O=C(O)CC[C@H](NC(=O)N[C@@H](CCC(=O)NCCc1ccc(I)cc1)C(=O)O)C(=O)O [HS-549, (((5)-1-Carboxy-4-((4-iodophenethyl)amino)-4-oxobutyl)carbamoyl)-L-glutamic Acid]
PSMA
  Ki: 0.01 nM

## O=C(O)CC[C@H](NC(=O)NC(CCCCNC(=O)c1ccc([211At])cc1)C(=O)O)C(=O)O (stereo partly drawn) [[^211At]YC-I-27, (2S)-2-(3-(1-Carboxy-5-(4-[^211At]asatatobenzamido)pentyl)ureido)pentanedioic Acid]
[1]; 1 H post-injection
  Biodistribution: Sm int.: 3.67 ± 0.65 % ID/g
  Biodistribution: bladder: 5.45 ± 2.57 % ID/g
  Biodistribution: blood: 1.67 ± 0.32 % ID/g
  Biodistribution: heart: 2.36 ± 0.48 % ID/g
  Biodistribution: kidney: 71.5 ± 12.0 % ID/g
  Biodistribution: liver: 2.11 ± 0.65 % ID/g
  Biodistribution: lung: 5.82 ± 1.28 % ID/g
  Biodistribution: muscle: 0.95 ± 0.15 % ID/g
  Biodistribution: spleen: 29.2 ± 10.2 % ID/g
  Biodistribution: stomach: 10.1 ± 1.66 % ID/g
  Biodistribution: thyroid: 3.68 ± 1.10 % ID/g
  Biodistribution: PC-3 PiP: 17.9 ± 2.98 % ID/g
  Biodistribution: PC-3 flu: 2.18 ± 0.44 % ID/g
[1]; 2 H post-injection
  Biodistribution: Sm int.: 2.08 ± 0.41 % ID/g
  Biodistribution: bladder: 4.55 ± 0.86 % ID/g
  Biodistribution: blood: 1.26 ± 0.15 % ID/g
  Biodistribution: heart: 1.79 ± 0.31 % ID/g
  Biodistribution: kidney: 60.2 ± 6.16 % ID/g
  Biodistribution: liver: 1.58 ± 0.21 % ID/g
  Biodistribution: lung: 6.30 ± 1.57 % ID/g
  Biodistribution: muscle: 0.81 ± 0.12 % ID/g
  Biodistribution: spleen: 20.3 ± 5.21 % ID/g
  Biodistribution: stomach: 9.29 ± 2.86 % ID/g
  Biodistribution: thyroid: 3.56 ± 0.95 % ID/g
  tumor/kidney ratio: 0.3
  Biodistribution: PC-3 PiP: 20.7 ± 3.42 % ID/g
  Biodistribution: PC-3 flu: 1.81 ± 0.27 % ID/g
[1]; 4 H post-injection
  Biodistribution: Sm int.: 1.85 ± 0.23 % ID/g
  Biodistribution: bladder: 4.17 ± 0.74 % ID/g
  Biodistribution: blood: 0.99 ± 0.12 % ID/g
  Biodistribution: heart: 1.65 ± 0.39 % ID/g
  Biodistribution: kidney: 60.2 ± 11.5 % ID/g
  Biodistribution: liver: 1.63 ± 0.10 % ID/g
  Biodistribution: lung: 5.54 ± 1.79 % ID/g
  Biodistribution: muscle: 0.72 ± 0.14 % ID/g
  Biodistribution: spleen: 20.3 ± 3.55 % ID/g
  Biodistribution: stomach: 13.3 ± 3.12 % ID/g
  Biodistribution: thyroid: 3.83 ± 1.18 % ID/g
  Biodistribution: PC-3 PiP: 18.3 ± 2.90 % ID/g
  Biodistribution: PC-3 flu: 1.53 ± 0.22 % ID/g
[1]; 18 H post-injection
  Biodistribution: Sm int.: 1.08 ± 0.10 % ID/g
  Biodistribution: bladder: 2.51 ± 0.39 % ID/g
  Biodistribution: blood: 0.53 ± 0.05 % ID/g
  Biodistribution: heart: 1.10 ± 0.16 % ID/g
  Biodistribution: kidney: 57.4 ± 7.36 % ID/g
  Biodistribution: liver: 0.82 ± 0.07 % ID/g
  Biodistribution: lung: 3.61 ± 0.40 % ID/g
  Biodistribution: muscle: 0.49 ± 0.27 % ID/g
  Biodistribution: spleen: 8.01 ± 2.04 % ID/g
  Biodistribution: stomach: 9.42 ± 3.04 % ID/g
  Biodistribution: thyroid: 6.50 ± 1.97 % ID/g
  Biodistribution: PC-3 PiP: 31.1 ± 9.78 % ID/g
  Biodistribution: PC-3 flu: 1.17 ± 0.20 % ID/g
[1]; [3]
  Non-target organ uptake: spleen: 8.0 % D/g
  Non-target organ uptake: stomach: 9.4 % D/g
  Non-target organ uptake: thyroid: 6.5 % D/g
[1]; 21 H post-injection
  tumor/kidney ratio: 0.5
[1]; biodistributions of Tables 2, 3, 9, 10
  PSMA positive tumor uptake (in words): demonstrated PSMA positive tumor uptake
PSMA positive cells
  Cell kill: effectively kill cell relative to the untargeted alpha emitter
LNCaP cells
  Uptake by LNCaP cells: is blocked, indicating target (PSMA) specific binding
[2]
  Tumor growth inhibition: PSMA Specific Tumor Growth Inhibition
